Results as given in patent US12583895B2, “Polypeptides for restoring endothelial function and methods of use thereof” (Vanderbilt University, priority 2019, dated 2026).

Legend:
p38 MAPK phosphorylation = p38 MAPK phosphorylation (Western blot) in anisomycin-treated rat aorta; assay type: cell-based; details: anisomycin 200 μM, 1 h
Protocol: (§1) RA rings were suspended in a muscle bath and incubated with either buffer alone (Ctrl), Aniso (200 μM) for 1 h, or NiPp (500 μM) for 30 min followed by Aniso (200 μM) for 1 h. […] Proteins were extracted […] immunoblotted to examine p38MAPK phosphorylation. Quantification of relative phosphorylation to total p38MAPK level is shown. n=10, *p<0.05 in one-way ANOVA with Tukey post-test. NiPp restores endothelial dysfunction and reduced p38 MAPK phosphorylation induced by anisomycin in RA.
(§2) RA rings were suspended in a muscle bath and incubated with either buffer alone (Ctrl), Aniso (200 μM) for 1 h, or NiPp (500 μM) for 30 min followed by Aniso (200 μM) for 1 h. […] The force generated was determined and was adjusted to the weight and length of the tissue. […] Proteins were extracted and phosphorylation of p38 MAPK was determined by Western blot analysis. […] Data are expressed as mean±SD.
p38 MAPK activation with Anisomycin. […] After treatments, endothelial-dependent relaxation was determined or tissues were snap-frozen for Western blot analysis.
Western blot Analysis. […] The protein-antibody complexes were visualized and quantified using the Odyssey Infrared Imaging System. Phosphorylation was calculated as a ratio of the phosphorylated protein to total protein and was then normalized to the untreated tissues (Ctrl) with the control value set as 1.0.

rat aorta = test: Carbachol-induced relaxation of anisomycin-treated rat aorta; assay type: cell-based; details: rat aorta; anisomycin 200 μM, 1 h
Protocol: as §1
as §2, with “tissue. Representative tracings from 1 out of 6 different rats are shown.” for “tissue.”, “mean±SD. […]” for “mean±SD.”
This produced the maximal force tension relationship as previously described. […] Contractile responses were defined by stress, calculated using force generated by tissues as follows: stress (×10^5 N/m^2)=force (g)×0.0987/area, where area=wet weight (mg)/at maximal length (mm)]/1.055.
Relaxation was calculated as percent change in stress compared to the maximal PE-induced contraction (set as 100%). […]

## COc1ccc(C[C@H]2NC[C@H](O)[C@H]2OC(C)=O)cc1 [Anisomycin, anisomycin, reference compound]
p38 MAPK phosphorylation
  effect of anisomycin alone on phosphorylation of p38 MAPK: increases
Rat aorta
  effect of anisomycin alone on endothelial dependent relaxation: impaired
